The text below walks through data of patent US20130040882A1, “USE OF FIBROBLAST GROWTH FACTOR FRAGMENTS” (NOVARTIS AG, priority 2003, published 2013).

The test has as its system luteinising hormone and follicle-stimulating hormone genes in the pituitary gland. The test can be described thus: Gene expression (HGU133A) in the pituitary gland of ovariectomized monkeys treated with estradiol, tamoxifen or raloxifene. In kind it is in vivo, cynomolgus monkeys (Macaca fascicularis). Particulars: for Fold change relative to OVX: Follicle stimulating hormone / Fold change relative to OVX: Luteinising hormone / Fold expression change to SHAM control: Follicle stimulating hormone / Fold expression change to SHAM control: Luteinising hormone: pituitary gland. On the procedure: Female sexually mature cynomolgus monkeys (Macaca fascicularis obtained from R. C. Hartelust B V, Tilburg, the Netherlands) approximately 48 months old were subjected to surgery (ovarectomy [OVX] or sham) 10 weeks prior to treatment and were treated for parasitic arthropods and helminthes, subjected to a tuberculin testing, and acclimated to the treatment facility for at least 14 days before beginning treatment.
Surgical Procedures. The ovariectomized cynomolgus monkey (Macaca fascicularis), which has been validated as a useful model predictive of outcomes in human clinical trials of estrogen and SERMs (Cline J M et al., Toxicol Pathol. 29:84-90 (2001)), was used as a model of estrogen deficiency. Animals were ovariectomized approximately 10 weeks before the first day of treatment. The ovaries were removed following anesthesia with a combined intramuscular injection of xylazine (Rompun®: 0.4 mL/animal, Bayer Pharma Division Sante Animale, Puteaux, France) and ketamine hydrochloride (Imalgéne®: 0.6 mL/kg, Mérial, Lyon, France). Sham-operated animals were subjected to the same surgical procedure, except for the removal of ovaries.
Ovariectomized and sham-operated animals were divided into groups of 4 and treated as outlined below.
Gene expression was determined in the pituitary and uterus at the end of drug therapy. Tissues to be analyzed (pituitary glands and uterus) were excised, snap frozen in liquid nitrogen, and stored at −80° C. until RNA extraction was performed.
Total RNA was obtained by acid guanidinium isothiocyanate-phenol-chloroform extraction (Trizol; Invitrogen Life Technologies, San Diego, Calif., USA) and purified on an affinity resin column (RNeasy; Qiagen, Hilden, Germany) according to manufacturer instructions. […] Lockhart D J, Dong H, Byrne M C, et al. Nat. Biotechnol. 1996; 14:1675-1680.
Previous studies have proven the validity of cross-species DNA chip analysis (Hacia J G et al. Nat Genet. 18:155-158 (1998)), therefore, the human gene expression probe arrays HGU133A (Affymetrix, Santa Clara, Calif., USA) containing 22,283 probe sets interrogating primarily annotated human genes were used. One GeneChip was used per tissue, per animal. The resulting image files (.dat files) were processed using the Microarray Analysis Suite 5 (MAS5) software (Affymetrix, Inc.). Tab-delimited files were obtained containing data regarding signal intensity (Signal) and categorical expression level measurement (Absolute Call).

Where only a bound is given, the exact number is not on record here.

As for `O=C(c1ccc(OCCN2CCCCC2)cc1)c1c(-c2ccc(O)cc2)sc2cc(O)ccc12` [raloxifene], the “Fold change relative to OVX: Follicle stimulating hormone” value came to 0.8 fold and the “Fold change relative to OVX: Luteinising hormone” value came to 1.3 fold. Besides, under “OVX monkeys”, the “Fold expression change to SHAM control: Follicle stimulating hormone” value worked out at 5.2 fold and the “Fold expression change to SHAM control: Luteinising hormone” value was found to be 9.8 fold.

In the case of `C#C[C@]1(O)CC[C@H]2[C@@H]3CCc4cc(O)ccc4[C@H]3CC[C@@]21C` [EE], the “Fold change relative to OVX: Follicle stimulating hormone” value is recorded as less than 0.1 fold and the “Fold change relative to OVX: Luteinising hormone” value came to 0.1 fold. Moreover, where the note is “OVX monkeys”, the “Fold expression change to SHAM control: Follicle stimulating hormone” value is given as 0.1 fold and the “Fold expression change to SHAM control: Luteinising hormone” value came to 0.5 fold.

On to `CC/C(=C(\c1ccccc1)c1ccc(OCCN(C)C)cc1)c1ccccc1` [tamoxifen], for which the “Fold change relative to OVX: Follicle stimulating hormone” value was found to be 0.4 fold and the “Fold change relative to OVX: Luteinising hormone” value worked out at 0.4 fold. Also, where the note is “OVX monkeys”, the “Decrease of FSH transcripts in the pituitary gland” value is given as 2.7 fold, the “Decrease of LH transcripts in the pituitary gland” value is 2.4 fold, the “Fold expression change to SHAM control: Follicle stimulating hormone” value turned out to be 2.3 fold and the “Fold expression change to SHAM control: Luteinising hormone” value was 3.2 fold.
